This note sets out measurements from ChEMBL document CHEMBL1795227, “Methanesulfonamido-cyclohexylamine derivatives of 2,4-diaminopyrimidine as potent ALK inhibitors” (Bioorg Med Chem Lett, 2011).

Assay [1] concerns the target T1, ALK tyrosine kinase receptor (Homo sapiens, UniProt Q9UM73). Description: Inhibition of ALK.
Target sequence in this assay (Q9UM73 whole entry): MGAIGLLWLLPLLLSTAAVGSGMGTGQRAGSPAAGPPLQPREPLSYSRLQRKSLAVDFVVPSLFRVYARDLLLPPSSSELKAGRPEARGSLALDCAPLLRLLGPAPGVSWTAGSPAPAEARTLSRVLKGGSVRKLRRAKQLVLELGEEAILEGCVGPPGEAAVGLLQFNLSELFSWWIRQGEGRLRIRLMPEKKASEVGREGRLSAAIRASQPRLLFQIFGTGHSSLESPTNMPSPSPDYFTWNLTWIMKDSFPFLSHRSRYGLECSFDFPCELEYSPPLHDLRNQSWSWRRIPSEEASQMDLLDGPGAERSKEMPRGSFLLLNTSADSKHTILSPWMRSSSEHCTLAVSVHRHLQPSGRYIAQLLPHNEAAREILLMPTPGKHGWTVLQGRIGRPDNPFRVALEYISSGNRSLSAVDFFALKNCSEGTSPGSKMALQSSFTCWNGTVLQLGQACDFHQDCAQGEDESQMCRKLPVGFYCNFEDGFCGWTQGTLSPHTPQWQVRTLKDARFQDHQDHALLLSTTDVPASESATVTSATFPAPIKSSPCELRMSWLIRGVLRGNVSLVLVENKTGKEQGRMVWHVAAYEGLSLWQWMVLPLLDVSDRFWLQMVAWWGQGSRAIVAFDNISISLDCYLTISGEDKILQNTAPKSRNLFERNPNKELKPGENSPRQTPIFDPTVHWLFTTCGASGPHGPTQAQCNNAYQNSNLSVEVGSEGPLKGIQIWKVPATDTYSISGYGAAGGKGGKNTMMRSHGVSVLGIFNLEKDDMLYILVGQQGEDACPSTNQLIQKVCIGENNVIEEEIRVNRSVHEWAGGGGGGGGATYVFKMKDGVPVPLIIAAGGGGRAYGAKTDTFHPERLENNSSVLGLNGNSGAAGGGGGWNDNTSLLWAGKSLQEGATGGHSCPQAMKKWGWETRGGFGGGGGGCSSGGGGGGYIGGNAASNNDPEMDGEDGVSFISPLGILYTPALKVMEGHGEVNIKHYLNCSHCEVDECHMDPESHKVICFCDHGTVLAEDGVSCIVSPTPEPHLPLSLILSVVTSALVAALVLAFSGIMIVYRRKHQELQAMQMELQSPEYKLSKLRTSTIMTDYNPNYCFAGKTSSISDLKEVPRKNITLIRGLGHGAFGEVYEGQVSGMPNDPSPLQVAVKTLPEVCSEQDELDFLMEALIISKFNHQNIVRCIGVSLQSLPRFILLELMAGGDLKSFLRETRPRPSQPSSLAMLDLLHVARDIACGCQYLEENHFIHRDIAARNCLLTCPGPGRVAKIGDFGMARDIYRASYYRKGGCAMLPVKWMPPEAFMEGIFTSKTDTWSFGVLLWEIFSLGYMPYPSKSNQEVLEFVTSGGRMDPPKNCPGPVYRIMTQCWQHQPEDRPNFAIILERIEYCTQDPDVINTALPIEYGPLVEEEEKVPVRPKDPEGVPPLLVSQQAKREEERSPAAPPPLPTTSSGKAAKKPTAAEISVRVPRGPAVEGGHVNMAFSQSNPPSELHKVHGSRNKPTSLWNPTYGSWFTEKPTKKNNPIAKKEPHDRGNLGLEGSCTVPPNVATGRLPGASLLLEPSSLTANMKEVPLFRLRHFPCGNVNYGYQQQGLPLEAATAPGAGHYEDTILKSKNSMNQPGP
In assay [2] the target is T1, ALK tyrosine kinase receptor. The experiment in a line: Inhibition of autophosphorylation of NPM-ALK in human Karpas-299 cells. The assay is classed as cell-based.
Target sequence in this assay (Q9UM73 19-1620 limits assumed): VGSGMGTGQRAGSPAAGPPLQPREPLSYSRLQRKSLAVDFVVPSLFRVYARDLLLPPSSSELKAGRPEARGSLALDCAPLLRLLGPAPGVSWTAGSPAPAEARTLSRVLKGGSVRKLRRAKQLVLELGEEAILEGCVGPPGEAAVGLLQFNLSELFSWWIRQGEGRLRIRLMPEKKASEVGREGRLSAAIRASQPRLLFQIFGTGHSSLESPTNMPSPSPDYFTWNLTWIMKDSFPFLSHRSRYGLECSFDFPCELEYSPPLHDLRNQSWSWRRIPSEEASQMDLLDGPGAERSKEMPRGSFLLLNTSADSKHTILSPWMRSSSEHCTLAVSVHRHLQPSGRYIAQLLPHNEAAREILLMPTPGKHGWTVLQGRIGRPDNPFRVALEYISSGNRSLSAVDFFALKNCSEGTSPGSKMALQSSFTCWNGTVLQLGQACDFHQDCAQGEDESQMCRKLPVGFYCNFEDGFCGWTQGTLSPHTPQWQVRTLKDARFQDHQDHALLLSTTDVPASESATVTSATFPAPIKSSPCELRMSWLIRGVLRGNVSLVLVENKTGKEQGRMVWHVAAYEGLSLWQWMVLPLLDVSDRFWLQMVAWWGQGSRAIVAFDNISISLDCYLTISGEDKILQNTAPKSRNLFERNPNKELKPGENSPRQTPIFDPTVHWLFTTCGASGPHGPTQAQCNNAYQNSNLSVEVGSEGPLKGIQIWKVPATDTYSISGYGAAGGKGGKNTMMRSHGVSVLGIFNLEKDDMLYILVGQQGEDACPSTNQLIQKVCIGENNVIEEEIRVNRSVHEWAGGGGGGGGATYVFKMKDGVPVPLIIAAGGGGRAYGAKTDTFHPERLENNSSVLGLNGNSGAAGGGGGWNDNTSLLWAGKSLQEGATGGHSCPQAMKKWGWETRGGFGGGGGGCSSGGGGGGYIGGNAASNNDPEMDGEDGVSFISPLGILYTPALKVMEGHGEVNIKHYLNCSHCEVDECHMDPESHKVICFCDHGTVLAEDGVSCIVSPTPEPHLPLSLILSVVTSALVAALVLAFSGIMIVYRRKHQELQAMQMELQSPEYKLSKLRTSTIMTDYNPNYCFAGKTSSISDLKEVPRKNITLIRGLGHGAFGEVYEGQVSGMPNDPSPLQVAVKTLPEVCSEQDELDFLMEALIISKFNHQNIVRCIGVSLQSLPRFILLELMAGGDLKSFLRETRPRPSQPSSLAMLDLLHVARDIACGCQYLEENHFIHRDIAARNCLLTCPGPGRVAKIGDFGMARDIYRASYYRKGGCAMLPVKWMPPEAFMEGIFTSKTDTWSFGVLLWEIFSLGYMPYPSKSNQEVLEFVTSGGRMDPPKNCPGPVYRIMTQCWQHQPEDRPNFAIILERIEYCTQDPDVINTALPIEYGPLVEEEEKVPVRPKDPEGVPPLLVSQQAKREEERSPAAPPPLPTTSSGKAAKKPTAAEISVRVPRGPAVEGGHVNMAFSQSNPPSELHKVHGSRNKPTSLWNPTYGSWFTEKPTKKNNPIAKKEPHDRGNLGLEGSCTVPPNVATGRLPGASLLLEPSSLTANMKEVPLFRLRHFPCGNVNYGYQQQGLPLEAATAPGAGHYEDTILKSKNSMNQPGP
The target in a further assay is Insulin receptor (Homo sapiens, UniProt P06213). Description: Inhibition of IR.
Chain of Insulin receptor (P06213 28-758 limits assumed): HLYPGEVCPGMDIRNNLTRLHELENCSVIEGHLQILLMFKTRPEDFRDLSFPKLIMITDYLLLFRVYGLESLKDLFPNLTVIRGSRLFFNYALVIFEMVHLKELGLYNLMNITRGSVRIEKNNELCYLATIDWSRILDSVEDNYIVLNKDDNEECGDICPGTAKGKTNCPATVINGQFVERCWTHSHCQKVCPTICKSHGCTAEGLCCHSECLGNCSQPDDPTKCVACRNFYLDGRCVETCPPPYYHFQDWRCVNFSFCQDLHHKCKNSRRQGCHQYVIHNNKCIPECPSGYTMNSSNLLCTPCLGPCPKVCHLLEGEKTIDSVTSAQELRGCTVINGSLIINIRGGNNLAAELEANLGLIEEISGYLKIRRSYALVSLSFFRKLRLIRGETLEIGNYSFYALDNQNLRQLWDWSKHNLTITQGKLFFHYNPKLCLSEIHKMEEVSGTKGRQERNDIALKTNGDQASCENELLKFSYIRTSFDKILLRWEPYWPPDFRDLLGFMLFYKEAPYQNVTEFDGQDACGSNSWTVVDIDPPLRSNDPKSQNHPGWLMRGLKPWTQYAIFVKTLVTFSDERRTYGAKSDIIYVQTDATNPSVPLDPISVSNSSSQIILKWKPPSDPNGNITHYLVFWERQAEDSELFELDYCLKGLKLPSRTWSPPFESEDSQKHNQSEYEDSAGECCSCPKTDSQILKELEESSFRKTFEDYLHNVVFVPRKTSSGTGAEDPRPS
Chain of Insulin receptor (P06213 763-1382 limits assumed): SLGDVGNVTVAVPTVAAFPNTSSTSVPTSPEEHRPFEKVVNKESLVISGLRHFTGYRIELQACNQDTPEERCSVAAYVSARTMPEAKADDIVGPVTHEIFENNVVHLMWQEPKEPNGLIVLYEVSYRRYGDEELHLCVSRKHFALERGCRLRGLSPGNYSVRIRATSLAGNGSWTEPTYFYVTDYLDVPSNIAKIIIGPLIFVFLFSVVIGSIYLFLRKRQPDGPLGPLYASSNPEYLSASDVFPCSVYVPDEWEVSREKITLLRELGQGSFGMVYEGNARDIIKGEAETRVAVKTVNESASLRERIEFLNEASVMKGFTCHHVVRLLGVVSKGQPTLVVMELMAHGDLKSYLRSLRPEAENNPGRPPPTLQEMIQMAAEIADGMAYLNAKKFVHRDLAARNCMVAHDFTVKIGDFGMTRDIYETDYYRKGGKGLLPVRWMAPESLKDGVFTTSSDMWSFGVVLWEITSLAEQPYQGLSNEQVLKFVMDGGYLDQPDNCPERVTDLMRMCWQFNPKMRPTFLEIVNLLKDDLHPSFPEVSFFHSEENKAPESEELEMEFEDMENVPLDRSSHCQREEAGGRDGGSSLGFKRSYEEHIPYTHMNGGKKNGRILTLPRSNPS

In general, IC50 refers to the concentration that inhibits the measured activity by half. Read a low IC50 as higher potency. `COCCN1CCc2ccc(Nc3ncc(Cl)c(N[C@@H]4CCCC[C@H]4O)n3)cc2CC1` (racemic): in assay [1], the IC50 is above 3000 nM.
For `CCN1CCc2ccc(Nc3ncc(Cl)c(N[C@@H]4CCCC[C@H]4NS(C)(=O)=O)n3)cc2CC1`, the half-inhibitory concentration (IC50) in assay [1] amounted to 9 nM; in assay [2] it was 60 nM; at Insulin receptor, 920 nM.
`CCN1CCc2ccc(Nc3ncc(Cl)c(N[C@@H]4CCCC[C@H]4NC(=O)N(C)C)n3)cc2CC1`: the IC50 in assay [1] is 370 nM; against Insulin receptor, 150 nM.
On to `CCN1CCc2ccc(Nc3ncc(Cl)c(N[C@@H]4CCCC[C@H]4NC(=O)C(F)(F)F)n3)cc2CC1`, for which the IC50 in assay [1] amounted to 26 nM; in assay [2], 200 nM; against Insulin receptor, 740 nM.
For the compound `CCN([C@@H]1CCCC[C@H]1Nc1nc(Nc2cc3c(cc2OC)CCN(CCOC)CC3)ncc1Cl)S(C)(=O)=O`, the IC50 in assay [1] came to 20 nM; in assay [2], 150 nM; on Insulin receptor, 430 nM.
Turning to `COCCN1CCc2ccc(Nc3ncc(Cl)c(N[C@@H]4CCC[C@@H](NS(C)(=O)=O)C4)n3)cc2CC1` (racemic), the IC50 in assay [1] is above 3000 nM.
In assay [1], `COCCN1CCc2ccc(Nc3ncc(Cl)c(N[C@@H]4CCC[C@H](NS(C)(=O)=O)C4)n3)cc2CC1` (racemic) registered an IC50 above 3000 nM.
In the case of `COCCN1CCc2ccc(Nc3ncc(Cl)c(NC4CCCCC4)n3)cc2CC1`, the IC50 is 78 nM in assay [1] and 77 nM against Insulin receptor.
In the same order, the values of `CCS(=O)(=O)N[C@@H]1CCCC[C@H]1Nc1nc(Nc2ccc3c(c2)CCN(CCOC)CC3)ncc1Cl` are 50 nM and 930 nM.
Turning to `CCN1CCc2ccc(Nc3ncc(Cl)c(N[C@@H]4CCCC[C@H]4NC(C)=O)n3)cc2CC1`, the IC50 amounted to 9 nM in assay [1], 65 nM in assay [2] and 150 nM against Insulin receptor.
`COc1cc(N2CCOCC2)ccc1Nc1ncc(Cl)c(N[C@@H]2CCCC[C@@H]2NS(C)(=O)=O)n1` (racemic): the IC50 worked out at 330 nM in assay [1] and 180 nM against Insulin receptor.
As to `COCCN1CCc2ccc(Nc3ncc(Cl)c(N[C@@H]4CCCC[C@H]4N)n3)cc2CC1`, the IC50 in assay [1] is 680 nM.
On the same count and under the same terms, the figure for `COCCN1CCc2ccc(Nc3ncc(Cl)c(N[C@H]4CC[C@@H](NS(C)(=O)=O)CC4)n3)cc2CC1` is 220 nM; for `COCCN1CCc2ccc(Nc3ncc(Cl)c(N[C@@H]4CCCC[C@H]4NS(=O)(=O)C4CC4)n3)cc2CC1` it is 110 nM; for `COCCN1CCc2ccc(Nc3ncc(Cl)c(N[C@@H]4CCCC[C@H]4NS(=O)(=O)C(C)C)n3)cc2CC1` it is 130 nM.
Same read-out and setting: the result for `COCCN1CCc2ccc(Nc3ncc(Cl)c(N[C@H]4CC[C@H](NS(C)(=O)=O)CC4)n3)cc2CC1` reads 100 nM.
As to `COCCN1CCc2ccc(Nc3ncc(Cl)c(N[C@@H]4CCCC[C@H]4NC(=O)C(F)(F)F)n3)cc2CC1`, the half-maximal inhibitory concentration (IC50) was 22 nM in assay [1], 100 nM in assay [2] and 710 nM against Insulin receptor.
With `COc1cc(N2CCOCC2)ccc1Nc1ncc(Cl)c(N[C@H]2CCCC[C@@H]2NS(C)(=O)=O)n1`, the IC50 in assay [1] was above 10000 nM; against Insulin receptor, 6300 nM.
In the case of `COc1cc(N2CCOCC2)ccc1Nc1ncc(Cl)c(N[C@@H]2CCCC[C@H]2NS(C)(=O)=O)n1`, the IC50 in assay [1] amounted to 10 nM; in assay [2], 65 nM; against Insulin receptor it was 1700 nM.
In the same order, the values of `COCCN1CCc2ccc(Nc3ncc(Cl)c(N[C@@H]4CCCC[C@H]4NS(=O)(=O)CC(F)(F)F)n3)cc2CC1` are 31 nM, 300 nM and 840 nM.
For `COCCN1CCc2ccc(Nc3ncc(Cl)c(N[C@@H]4CCCC[C@H]4NS(C)(=O)=O)n3)cc2CC1`, in that order: 9 nM, 73 nM and 540 nM.
